Results published in patent US4839355A, “Tricyclic-pyridinylquinoline compounds, their preparation and use” (Sterling Drug Inc., priority 1988, dated 1989).
≈ marks a conversion by molar mass, not a printed value. Read-outs that look alike come from different tables or passages of the source.

Assays:
[1] = system: Micrococcus luteus; assay: In vitro antimicrobial activity, microplate dilution MIC, Micrococcus luteus; format: cell-based
Description: (§1) The in vitro antimicrobial activity of the compounds of the invention was determined by a microplate dilution procedure. Bacterial cultures were grown in Meuller Hintom II (cation supplemented) broth (S. aureus, S. faecalis, M. luteus, E. coli and P. aeruginosa), Brain Heart Infusion (BHI) broth supplemented with 10% heat inactivated horse serum (S. penumoniae) or BHI broth supplemented with 5 mcg/ml Hemin and 0.5 mcg/ml vitamin K (B. fragilis) at 37° C. for 18-24 hrs. The cultures were grown under aerobic conditions with the exception of B. fragilis which was grown 48 hrs. under anaerobic conditions (atmosphere 5% CO2, 10% H2 and 85% N2). Resulting suspensions were diluted 1/10 in the appropriate broth or used undiluted for the inoculum. Aqueous solutions of the compounds of the invention were solubilized in dimethylsulfoxide (DMSO) at the desired concentration and 200 mcl were dispensed into the first row of wells of a sterile microplate. The compounds were then serially diluted two-fold in DMSO to give a working stock concentration range plate. The last row of wells was left compound-free receiving only DMSO to serve as a growth control. Five mcl from each well of the working stock plate was transferred to corresponding wells of a separate plate containing 95 mcl/well of the appropriate broth. All dilutions were made with either an automated dilutor or manually. The wells of microplate containing the desired compound concentrations and compound-free growth controls in broth were then inoculated using the MIC 2000 inoculator which delivers 1.5 mcl/well to give a final inoculum level of 10^4 microorganism/well or 10^5 microorganism/ml. Plates were incubated as described above and read for visible growth. The minimal inhibitory concentration (MIC: expressed in mcg/ml) of each compound tested against each test microorganism was determined as the lowest concentration of compound which prevents visible microbial growth.

[2] = system: Escherichia coli; assay: In vitro antimicrobial activity, microplate dilution MIC, Escherichia coli; format: cell-based
Description: as §1

[3] = system: Staphylococcus aureus; assay: In vitro antimicrobial activity, microplate dilution MIC, Staphylococcus aureus; format: cell-based; settings: for MIC: Staphylococcus aureus, in vitro
Description: as §1

[4] = system: Streptococcus faecalis; assay: In vitro antimicrobial activity, microplate dilution MIC, Streptococcus faecalis; format: cell-based; settings: Enterococcus faecalis
Description: as §1

[5] = system: Streptococcus pneumoniae; assay: In vitro antimicrobial activity, microplate dilution MIC, Streptococcus pneumoniae; format: cell-based
Description: as §1

[6] = system: Pseudomonas aeruginosa; assay: In vitro antimicrobial activity, microplate dilution MIC, Pseudomonas aeruginosa; format: cell-based; settings: 10^5 microorganism/ml, read-out: MIC (minimal inhibitory concentration), PA
Description: as §1

[7] = system: Bacteroides fragilis; assay: In vitro antimicrobial activity, microplate dilution MIC, Bacteroides fragilis; format: cell-based
Description: as §1

[8] = system: Staph. aureus; assay: In vivo antibacterial activity in female mice, Staph. aureus infection; design: species or system Staphylococcus aureus; settings: mouse; for ED50: Staphylococcus aureus, 168 h, one-half hour postinfection, deaths over seven days
Description: (§2) The in vivo antibacterial activity of the compounds of the invention was determined in female mice, 18-20 grams each. Aqueous solutions of the compounds to be tested were prepared by dissolving the free acid form in dilute sodium hydroxide and diluting the solution with distilled water to the desired concentration.
(§3) Cultures of E. coli were grown in brain heart infusion broth, and the mice were inoculated intraperitoneally with 0.5 ml of the bacterial test inoculum suspended in saline. Cultures of Staph. aureus were thawed from frozen pooled stocks and mixed with 5% mucin. A 0.5 ml preparation was used to infect mice by i.p. inoculation.
(§4) The mice were medicated subcutaneously (sc) or orally (po) with 0.5 ml of the test compound solution one-half hour postinfection. Deaths were recorded daily for seven days. Fifty percent protective dose values (PD50) were calculated using probit analyis.

[9] = system: E. coli; assay: In vivo antibacterial activity in female mice, E. coli infection; design: species or system Escherichia coli; settings: mouse; for ED50: Escherichia coli, 168 h, one-half hour postinfection, deaths over seven days; for in vivo activity against E. coli compared with compounds P and Q: Table II
Description: as §2, §3, §4

[10] = system: bacteria; assay: In vitro antimicrobial activity, overall comparison over the bacterial panel; format: cell-based; settings: for improved in vitro activity against named organisms: Staph. aureus, Strep. faecalis, Strep. pneumoniae
Description: as §1

[11] = 10^5 microorganism/ml, read-out: MIC (minimal inhibitory concentration), ML
[12] = 10^5 microorganism/ml, read-out: MIC (minimal inhibitory concentration), EC
[13] = Staph. aureus, from Table I MICs
[14] = 10^5 microorganism/ml, read-out: MIC (minimal inhibitory concentration), SA
[15] = Streptococcus faecalis, 10^5 microorganism/ml, read-out: MIC (minimal inhibitory concentration), SF
[16] = 10^5 microorganism/ml, 10% horse serum in BHI broth, read-out: MIC (minimal inhibitory concentration), SP
[17] = 10^5 microorganism/ml, anaerobic, read-out: MIC (minimal inhibitory concentration), BF
[18] = po, read-out: PD50 (fifty percent protective dose), Staph. aureus, po
[19] = sc, read-out: PD50 (fifty percent protective dose), Staph. aureus, sc
[20] = po, read-out: PD50 (fifty percent protective dose), E. coli, po
[21] = sc, read-out: PD50 (fifty percent protective dose), E. coli, sc
[22] = Strep. pneumoniae, read-out: MIC

Row | Structure (SMILES) | MIC [1, 11] [µg/mL] | MIC [2, 12] [µg/mL] | MIC [3, 14] [µg/mL] | MIC [4, 15] [µg/mL] | MIC [5, 16] [µg/mL] | MIC [6] [µg/mL] | MIC [7, 17] [µg/mL] | ED50 [8, 18] [mg/kg] | ED50 [8, 19] [mg/kg] | ED50 [9, 20] [mg/kg] | ED50 [9, 21] [mg/kg] | other results
1 | Cc1cc(-c2c(F)cc3c(=O)c(C(=O)O)cn4c3c2SC[C@@H]4C)cc(C)n1 [D, (S)-10-(2,6-Dimethyl-4-pyridinyl)-9-fluoro-3-methyl-7-oxo-2,3-dihydro-7H-pyrido[1,2,3-de][1,4]benzothiazine-6-carboxylic acid] | 0.06 (≈ 0.156 µM) | 0.06 (≈ 0.156 µM) | 0.004 (≈ 0.0104 µM) | 0.06 (≈ 0.156 µM) | 0.016 (≈ 0.0416 µM) | 2 (≈ 5.2 µM) | 0.06 (≈ 0.156 µM) | 0.03 | 0.03 | 2.6 | 1.5 | in vitro activity relative to compound P [3, 13]: sixty times as active as compound P; in vitro activity relative to compound Q [3, 13]: eight times as active as compound Q; in vivo activity against E. coli compared with compounds P and Q [9]: approximately equal in activity to compound Q and slightly less active than compound P against E. coli; in vitro activity compared with prior art compounds P and Q ([10]; Table I MICs): substantilly more active than the prior art compounds (P and Q) against all of the organisms except E. coli and P. aeruginosa
2 | Cc1cc(-c2c(F)c(F)c3c(=O)c(C(=O)O)cn4c3c2OC[C@@H]4C)cc(C)n1 [A, (S)-10-(2,6-Dimethyl-4-pyridinyl)-8,9-difluoro-3-methyl-7-oxo-2,3-dihydro-7H-pyrido[1,2,3-de][1,4]benzoxazine-6-carboxylic acid] | 1 (≈ 2.59 µM) | 0.125 (≈ 0.324 µM) | 0.016 (≈ 0.0414 µM) | 0.125 (≈ 0.324 µM) | 0.06 (≈ 0.155 µM) | 8 (≈ 20.7 µM) | 1 (≈ 2.59 µM) | 0.13 | 0.05 | 12.3 | 4.7 | in vivo activity against E. coli compared with compounds P and Q [9]: approximately equal in activity to compound Q and slightly less active than compound P against E. coli; improved in vitro activity against named organisms ([10]; Table I MICs): improved activity against Staph. auerus, Strep. faecalis and Strip. pneumoniae
3 | Cc1cc(-c2c(F)c(SCc3ccccc3)c3c(=O)c(C(=O)O)cn4c3c2OC[C@@H]4C)cc(C)n1 [Example 4, (S)-8-(Benzylthio)-10-(2,6-dimethyl-4-pyridinyl)-9-fluoro-3-methyl-7-oxo-2,3-dihydro-7H-pyrido[1,2,3-de][1,4]-benzoxazine-6-carboxylic acid] | – | – | – | – | – | – | – | – | – | – | – | MIC ([1]; M. luteus, read-out: MIC): 32 µg/mL (≈ 65.2 µM); MIC ([2]; E. coli, read-out: MIC): 8 µg/mL (≈ 16.3 µM); MIC ([3]; Staph. aureus, read-out: MIC): 1 µg/mL (≈ 2.04 µM); MIC ([4]; Strep. faecalis, read-out: MIC): 32 µg/mL (≈ 65.2 µM); MIC [5, 22]: 8 µg/mL (≈ 16.3 µM); MIC ([7]; B. fragilis, read-out: MIC): 32 µg/mL (≈ 65.2 µM); antibacterial activity in vitro ([10]; in words): appreciable antibacterial activity in vitro
4 | CCn1cc(C(=O)O)c(=O)c2cc(F)c(-c3cc(C)nc(C)c3)cc21 [Q, 7-(2,6-Dimethyl-4-pyridinyl)-1-ethyl-6-fluoro-1,4-dihydro-4-oxo-3-quinolinecarboxylic acid, reference compound] | 0.5 (≈ 1.47 µM) | 0.06 (≈ 0.176 µM) | 0.03 (≈ 0.0881 µM) | 0.25 (≈ 0.735 µM) | 0.25 (≈ 0.735 µM) | 4 (≈ 11.8 µM) | 2 (≈ 5.88 µM) | 1.38 | 0.71 | 8.24 | 5.39 | –
5 | CCOC(=O)c1cn2c3c(c(-c4cc(C)nc(C)c4)c(F)cc3c1=O)OC[C@H]2C [Example 6(e), Ethyl (R)-10-(2,6-dimethyl-4-pyridinyl)-9-fluoro-3-methyl-7-oxo-2,3-dihydro-7H-pyrido[1,2,3-de][1,4]benzoxazine-6-carboxylate] | – | – | – | – | – | – | – | – | – | – | – | MIC ([2]; E. coli, read-out: MIC): 1 µg/mL (≈ 2.52 µM); MIC ([3]; Staph. aureus, read-out: MIC): 0.25 µg/mL (≈ 0.631 µM); MIC ([4]; Strep. faecalis, read-out: MIC): 4 µg/mL (≈ 10.1 µM); MIC [5, 22]: 1 µg/mL (≈ 2.52 µM); MIC ([7]; B. fragilis, read-out: MIC): 16 µg/mL (≈ 40.4 µM); antibacterial activity in vitro ([10]; in words): substantial antibacterial activity in vitro; in vitro activity compared with the (S)-isomer (compound B) ([10]; in words): less active than the (S)-isomer (compound B)
6 | CC[C@H]1COc2c(-c3cc(C)nc(C)c3)c(F)cc3c(=O)c(C(=O)O)cn1c23 [Compound C, (S)-10-(2,6-Dimethyl-4-pyridinyl)-9-fluoro-3-ethyl-7-oxo-2,3-dihydro-7H-pyrido[1,2,3-de][1,4]benzoxazine-6-carboxylic acid] | 0.5 (≈ 1.31 µM) | 0.016 (≈ 0.0418 µM) | < 0.004 | 0.125 (≈ 0.327 µM) | 0.06 (≈ 0.157 µM) | 4 (≈ 10.5 µM) | 0.5 (≈ 1.31 µM) | 0.41 | 0.2 | 32.9 | 8.8 | more active than compound P against Staph. aureus ([8]; subcutaneous): fifteen; more active than compound Q against Staph. aureus ([8]; subcutaneous): three times more active; improved in vitro activity against named organisms ([10]; Table I MICs): improved activity against Staph. auerus, Strep. faecalis and Strip. pneumoniae
7 | CC1COc2c(N3CCN(C)CC3)c(F)cc3c(=O)c(C(=O)O)cn1c23 (stereo not drawn) [P, 9-Fluoro-3-methyl-10-(4-methyl-1-piperazinyl)-7-oxo-2,3-dihydro-7H-pyrido[1,2,3-de][1,4]benzoxazine-6-carboxylic acid, reference compound] | 2 (≈ 5.53 µM) | 0.008 (≈ 0.0221 µM) | 0.25 (≈ 0.692 µM) | 2 (≈ 5.53 µM) | 0.25 (≈ 0.692 µM) | 0.5 (≈ 1.38 µM) | 0.5 (≈ 1.38 µM) | 6.5 | 3 | 1.17 | 0.48 | –
